Results from ChEMBL document CHEMBL6087462, “Cuminaldehyde Potentiates Antiproteolytic Peptide Efficacy via Parallel Pathways of Enhanced Inner Membrane-Damaging Activity and Inhibition of Bacterial Energy Metabolism” (J Med Chem, 2025).

Key:
Escherichia coli [1] = experiment: Synergistic antimicrobial activity against Escherichia coli K99 assessed as fractional inhibitory concentration by checkerboard broth microdilution assay; format: functional
Salmonella typhimurium [2] = experiment: Synergistic antimicrobial activity against Salmonella typhimurium 14028 assessed as fractional inhibitory concentration index in presence of thymol by checkerboard broth microdilution assay; format: functional, Salmonella enterica subsp. enterica serovar Typhimurium
Staphylococcus aureus [3] = experiment: Synergistic antimicrobial activity against Staphylococcus aureus 25923 assessed as fractional inhibitory concentration index in presence of cuminaldehyde by checkerboard broth microdilution assay; format: functional
Escherichia coli [4] = experiment: Synergistic antimicrobial activity against Escherichia coli K99 assessed as fractional inhibitory concentration index in presence of thymol by checkerboard broth microdilution assay; format: functional
Escherichia coli [5] = experiment: Synergistic antimicrobial activity against Escherichia coli 078 assessed as fractional inhibitory concentration index in presence of citral by checkerboard broth microdilution assay; format: functional, 78
Salmonella typhimurium [6] = experiment: Antimicrobial activity against Salmonella typhimurium ATCC 7731 assessed as cuminaldehyde MIC by CLSI based broth microdilution method; format: functional, Salmonella enterica subsp. enterica serovar Typhimurium; conditions: Salmonella enterica
[7] = test system: Staphylococcus epidermidis; experiment: Synergistic antimicrobial activity against Staphylococcus epidermidis 12228 assessed as fractional inhibitory concentration index in presence of perillaldehyde by checkerboard broth microdilution assay; format: functional
Staphylococcus aureus [8] = experiment: Synergistic antimicrobial activity against Staphylococcus aureus 43300 assessed as fractional inhibitory concentration index in presence of citronellal by checkerboard broth microdilution assay; format: functional
Escherichia coli [9] = experiment: Antimicrobial activity against Escherichia coli K99 assessed as reduction in microbial growth in presence of cuminaldehyde by CLSI based broth microdilution method; format: functional
Staphylococcus aureus [10] = experiment: Antimicrobial activity against Staphylococcus aureus 43300 assessed as cuminaldehyde MIC by CLSI based broth microdilution method; format: functional
Escherichia coli [11] = experiment: Synergistic antimicrobial activity against Escherichia coli UB1005 assessed as fractional inhibitory concentration index in presence of perillaldehyde by checkerboard broth microdilution assay; format: functional
Staphylococcus aureus [12] = experiment: Antimicrobial activity against Staphylococcus aureus ATCC 25923 assessed as reduction in microbial growth by CLSI based broth microdilution method; format: functional
Salmonella typhimurium [13] = experiment: Synergistic antimicrobial activity against Salmonella typhimurium ATCC 14028 assessed as fractional inhibitory concentration by checkerboard broth microdilution assay; format: functional, Salmonella enterica subsp. enterica serovar Typhimurium
Salmonella typhimurium [14] = experiment: Synergistic antimicrobial activity against Salmonella typhimurium 14028 assessed as fractional inhibitory concentration index in presence of citral by checkerboard broth microdilution assay; format: functional, Salmonella enterica subsp. enterica serovar Typhimurium
Escherichia coli [15] = experiment: Antimicrobial activity against Escherichia coli 078 assessed as reduction in microbial growth by CLSI based broth microdilution method; format: functional
Escherichia coli [16] = experiment: Antimicrobial activity against Escherichia coli K88 assessed as reduction in microbial growth by CLSI based broth microdilution method; format: functional
Staphylococcus aureus [17] = experiment: Synergistic antimicrobial activity against Staphylococcus aureus 25923 assessed as fractional inhibitory concentration index in presence of citral by checkerboard broth microdilution assay; format: functional
Escherichia coli [18] = experiment: Synergistic antimicrobial activity against Escherichia coli K99 assessed as fractional inhibitory concentration index in presence of perillaldehyde by checkerboard broth microdilution assay; format: functional
[19] = Synergistic antimicrobial activity against Salmonella enterica subsp. enterica serovar Pullorum 7913 assessed as fractional inhibitory concentration index in presence of cuminaldehyde by checkerboard broth microdilution assay; format: functional
Escherichia coli [20] = experiment: Synergistic antimicrobial activity against Escherichia coli UB 1005 assessed as fractional inhibitory concentration by checkerboard broth microdilution assay; format: functional
Escherichia coli [21] = experiment: Synergistic antimicrobial activity against Escherichia coli K99 assessed as fractional inhibitory concentration index in presence of cuminaldehyde by checkerboard broth microdilution assay; format: functional
Escherichia coli [22] = experiment: Synergistic antimicrobial activity against Escherichia coli K99 assessed as fractional inhibitory concentration index in presence of citral by checkerboard broth microdilution assay; format: functional
Staphylococcus aureus [23] = experiment: Antimicrobial activity against Staphylococcus aureus 43300 assessed as reduction in microbial growth by CLSI based broth microdilution method; format: functional
Escherichia coli [24] = experiment: Antimicrobial activity against Escherichia coli ATCC 25922 assessed as reduction in microbial growth by CLSI based broth microdilution method; format: functional
[25] = Synergistic antimicrobial activity against Salmonella enterica subsp. enterica serovar Pullorum 7913 assessed as fractional inhibitory concentration index in presence of thymol by checkerboard broth microdilution assay; format: functional
Escherichia coli [26] = experiment: Synergistic antimicrobial activity against Escherichia coli K88 assessed as fractional inhibitory concentration by checkerboard broth microdilution assay; format: functional
Pseudomonas aeruginosa [27] = experiment: Antimicrobial activity against Pseudomonas aeruginosa ATCC 27853 assessed as cuminaldehyde MIC by CLSI based broth microdilution method; format: functional
[28] = test system: Staphylococcus epidermidis; experiment: Synergistic antimicrobial activity against Staphylococcus epidermidis ATCC 12228 assessed as fractional inhibitory concentration by checkerboard broth microdilution assay; format: functional
Pseudomonas aeruginosa [29] = experiment: Synergistic antimicrobial activity against Pseudomonas aeruginosa 27853 assessed as fractional inhibitory concentration index in presence of perillaldehyde by checkerboard broth microdilution assay; format: functional
Escherichia coli [30] = experiment: Synergistic antimicrobial activity against Escherichia coli UB1005 assessed as fractional inhibitory concentration index in presence of thymol by checkerboard broth microdilution assay; format: functional
Escherichia coli [31] = experiment: Antimicrobial activity against Escherichia coli UB 1005 assessed as reduction in microbial growth in presence of cuminaldehyde by CLSI based broth microdilution method; format: functional
Salmonella typhimurium [32] = experiment: Synergistic antimicrobial activity against Salmonella typhimurium 7731 assessed as fractional inhibitory concentration index in presence of citral by checkerboard broth microdilution assay; format: functional, Salmonella enterica subsp. enterica serovar Typhimurium
Pseudomonas aeruginosa [33] = experiment: Synergistic antimicrobial activity against Pseudomonas aeruginosa 27853 assessed as fractional inhibitory concentration index in presence of thymol by checkerboard broth microdilution assay; format: functional
Salmonella typhimurium [34] = experiment: Synergistic antimicrobial activity against Salmonella typhimurium 14028 assessed as fractional inhibitory concentration index in presence of citronellal by checkerboard broth microdilution assay; format: functional, Salmonella enterica subsp. enterica serovar Typhimurium
Staphylococcus aureus [35] = experiment: Synergistic antimicrobial activity against Staphylococcus aureus 29213 assessed as fractional inhibitory concentration index in presence of thymol by checkerboard broth microdilution assay; format: functional
Pseudomonas aeruginosa [36] = experiment: Synergistic antimicrobial activity against Pseudomonas aeruginosa 27853 assessed as fractional inhibitory concentration index in presence of citral by checkerboard broth microdilution assay; format: functional
Escherichia coli [37] = experiment: Synergistic antimicrobial activity against Escherichia coli K88 assessed as fractional inhibitory concentration index in presence of citronellal by checkerboard broth microdilution assay; format: functional
Escherichia coli [38] = experiment: Antimicrobial activity against Escherichia coli UB 1005 assessed as reduction in microbial growth by CLSI based broth microdilution method; format: functional
Enterococcus faecalis = experiment: Synergistic antimicrobial activity against Enterococcus faecalis 29212 assessed as fractional inhibitory concentration index in presence of citronellal by checkerboard broth microdilution assay; format: functional
Staphylococcus aureus [39] = experiment: Synergistic antimicrobial activity against Staphylococcus aureus 29213 assessed as fractional inhibitory concentration index in presence of citral by checkerboard broth microdilution assay; format: functional
Staphylococcus aureus [40] = experiment: Synergistic antimicrobial activity against Staphylococcus aureus 43300 assessed as fractional inhibitory concentration index in presence of cuminaldehyde by checkerboard broth microdilution assay; format: functional
Staphylococcus aureus [41] = experiment: Synergistic antimicrobial activity against Staphylococcus aureus 25923 assessed as fractional inhibitory concentration index in presence of carvacrol by checkerboard broth microdilution assay; format: functional
Pseudomonas aeruginosa [42] = experiment: Synergistic antimicrobial activity against Pseudomonas aeruginosa 27853 assessed as fractional inhibitory concentration index in presence of citronellal by checkerboard broth microdilution assay; format: functional
Staphylococcus aureus [43] = experiment: Synergistic antimicrobial activity against Staphylococcus aureus 25923 assessed as fractional inhibitory concentration index in presence of thymol by checkerboard broth microdilution assay; format: functional

CC[C@H](C)[C@H](NC(=O)[C@@H](NC(=O)[C@@H](CCCNC(=N)N)NC(=O)[C@H](C)NC(=O)[C@H](C)NC(=O)[C@@H](N)Cc1cccc2ccccc12)[C@@H](C)CC)C(=O)N[C@@H](CC(C)C)C(=O)N[C@H](CCCNC(=N)N)C(=O)N[C@@H](Cc1c[nH]c2ccccc12)C(=O)N[C@H](CCCNC(=N)N)C(=O)N[C@@H](Cc1ccccc1)C(=O)N[C@@H](CCCNC(=N)N)C(=O)O
FIC (Escherichia coli [1]): 0.25 | fractional inhibitory concentration index (FICI) (Salmonella typhimurium [2]): 0.313 | fractional inhibitory concentration index (FICI) (Staphylococcus aureus [3]): 0.188 | fractional inhibitory concentration index (FICI) (Escherichia coli [4]): 0.5 | fractional inhibitory concentration index (FICI) (Escherichia coli [5]): 0.094 | MIC (Salmonella typhimurium [6]): 1020 µg/mL | fractional inhibitory concentration index (FICI) [7]: 0.375 | fractional inhibitory concentration index (FICI) (Staphylococcus aureus [8]): 0.188 | MIC (Escherichia coli [9]): 0.25 µg/mL | MIC (Staphylococcus aureus [10]): 1020 µg/mL | fractional inhibitory concentration index (FICI) (Escherichia coli [11]): 0.281 | MIC (Staphylococcus aureus [12]): 16 µg/mL | FIC (Salmonella typhimurium [13]): 0.25 | fractional inhibitory concentration index (FICI) (Salmonella typhimurium [14]): 0.141 | MIC (Escherichia coli [15]): 8 µg/mL | MIC (Escherichia coli [16]): 4 µg/mL | fractional inhibitory concentration index (FICI) (Staphylococcus aureus [17]): 0.25 | fractional inhibitory concentration index (FICI) (Escherichia coli [18]): 0.375 | fractional inhibitory concentration index (FICI) [19]: 0.125 | FIC (Escherichia coli [20]): 0.125 | fractional inhibitory concentration index (FICI) (Escherichia coli [21]): 0.375 | fractional inhibitory concentration index (FICI) (Escherichia coli [22]): 0.375 | MIC (Staphylococcus aureus [23]): 8 µg/mL | MIC (Escherichia coli [24]): 4 µg/mL | fractional inhibitory concentration index (FICI) [25]: 0.75 | FIC (Escherichia coli [26]): 0.063 | MIC (Pseudomonas aeruginosa [27]): 512 µg/mL | FIC [28]: 0.25 | fractional inhibitory concentration index (FICI) (Pseudomonas aeruginosa [29]): 0.141 | fractional inhibitory concentration index (FICI) (Escherichia coli [30]): 0.25 | MIC (Escherichia coli [31]): 0.5 µg/mL | fractional inhibitory concentration index (FICI) (Salmonella typhimurium [32]): 0.141 | fractional inhibitory concentration index (FICI) (Pseudomonas aeruginosa [33]): 0.25 | fractional inhibitory concentration index (FICI) (Salmonella typhimurium [34]): 0.254 | fractional inhibitory concentration index (FICI) (Staphylococcus aureus [35]): 0.25 | fractional inhibitory concentration index (FICI) (Pseudomonas aeruginosa [36]): 0.141 | fractional inhibitory concentration index (FICI) (Escherichia coli [37]): 0.156 | MIC (Escherichia coli [38]): 16 µg/mL | fractional inhibitory concentration index (FICI) (Enterococcus faecalis): 0.375 | fractional inhibitory concentration index (FICI) (Staphylococcus aureus [39]): 0.385 | fractional inhibitory concentration index (FICI) (Staphylococcus aureus [40]): 0.375 | fractional inhibitory concentration index (FICI) (Staphylococcus aureus [41]): 0.375 | fractional inhibitory concentration index (FICI) (Pseudomonas aeruginosa [42]): 0.254 | fractional inhibitory concentration index (FICI) (Staphylococcus aureus [43]): 0.25
